From PubChem BioAssay (NCI) come the findings set out here.

Structures are written as SMILES.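 Protocol summary: plate cells (96-well), add compound at 5 concentrations, incubate 48 h, interpolate endpoints linearly. At the GI50, growth is halved. The concentration for full growth arrest is given as TGI.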

Among the test systems are SK-OV-3 ovarian; HCT-15 colon; TK-10 renal; UACC-257 melanoma; PC-3 prostate; SF-539 CNS; OVCAR-3 ovarian; ACHN renal; OVCAR-8 ovarian; NCI-H460 lung.
Holding throughout (assay): DTP human tumour cell line panel, 48 h

What is called GI50 is the concentration at which growth is held to half of that of the control. For orientation: TGI means the concentration at which net growth stops.

`c1ccc(-c2n(Cc3ccc4ccccc4n3)cc[n+]2Cc2ccc3ccccc3c2)cc1`: the GI50 is 1.8 µM with SK-OV-3 ovarian; 5.21 µM in the experiment with HCT-15 colon; 1.61 µM with TK-10 renal; 0.557 µM with UACC-257 melanoma; 1.31 µM with PC-3 prostate; 1.45 µM with SF-539 CNS. Also, the GI50 with OVCAR-3 ovarian is 0.766 µM; with ACHN renal it was 3.35 µM; with OVCAR-8 ovarian, 1.63 µM; in the experiment on NCI-H460 lung, 1.79 µM. The TGI worked out at 4.69 µM with SK-OV-3 ovarian; 17.9 µM in the experiment with HCT-15 colon; 4.11 µM in the experiment with TK-10 renal; 3.03 µM in the experiment with UACC-257 melanoma; 5.51 µM in the experiment with PC-3 prostate; 4.64 µM with SF-539 CNS. The concentration for total growth inhibition (TGI) in the experiment on OVCAR-3 ovarian came to 2.63 µM; in the experiment on ACHN renal it was 11.4 µM; in the experiment with OVCAR-8 ovarian, 4.4 µM; with NCI-H460 lung, 5.8 µM.

Take `COC1=CC(=O)C(C2(OC(C)C)OC(=O)C(Cl)=C2Cl)=CC1=O` (stereo not given): the TGI in the experiment on SK-OV-3 ovarian, with HCT-15 colon, with TK-10 renal, in the experiment on UACC-257 melanoma, with PC-3 prostate and in the experiment with SF-539 CNS was over 100 µM each time. Besides, the TGI in the experiment on OVCAR-3 ovarian is over 100 µM; in the experiment with ACHN renal it was over 100 µM; in the experiment on OVCAR-8 ovarian, 78.8 µM; in the experiment with NCI-H460 lung, over 100 µM.

As for `CCNC(=O)C#Cc1ccc2c(C(=Nc3ccc(CN(C)C)cc3)c3ccccc3)c(O)[nH]c2c1`, the GI50 in the experiment with SK-OV-3 ovarian was 1.86 µM; with HCT-15 colon, 0.392 µM; in the experiment on TK-10 renal it was 0.593 µM; with UACC-257 melanoma, 0.0216 µM; with PC-3 prostate, 0.238 µM; in the experiment with SF-539 CNS it was 0.121 µM. The GI50 with OVCAR-3 ovarian is 0.752 µM; in the experiment on ACHN renal, 0.265 µM; in the experiment with OVCAR-8 ovarian, 1.04 µM; in the experiment on NCI-H460 lung it was 0.0106 µM. Also, the TGI in the experiment with SK-OV-3 ovarian was over 10 µM; in the experiment on HCT-15 colon it was 4.62 µM; in the experiment with TK-10 renal, over 5.41 µM; with UACC-257 melanoma it was 0.114 µM; in the experiment with PC-3 prostate, over 4.79 µM; in the experiment with SF-539 CNS, 1.27 µM. Besides, the TGI is over 10 µM in the experiment on OVCAR-3 ovarian, 2.58 µM in the experiment on ACHN renal, over 10 µM in the experiment with OVCAR-8 ovarian and 1.96 µM in the experiment on NCI-H460 lung.

As for `CCOC(=O)n1cc(C2=C(c3ccc(OC)c(OC)c3)COC2=O)c2ccccc21`, the GI50 in the experiment on SK-OV-3 ovarian is 0.817 µM; in the experiment on HCT-15 colon, 0.0408 µM; with TK-10 renal it was 13.5 µM; in the experiment on UACC-257 melanoma, 16.1 µM; in the experiment on PC-3 prostate, 0.0404 µM; in the experiment on SF-539 CNS, 0.031 µM. In addition, the 50% growth inhibitory concentration (GI50) with OVCAR-3 ovarian was 0.0332 µM; in the experiment on ACHN renal, 0.0615 µM; in the experiment on OVCAR-8 ovarian it was 0.0954 µM; in the experiment with NCI-H460 lung, 0.122 µM. Moreover, the concentration for total growth inhibition (TGI) in the experiment with SK-OV-3 ovarian is over 100 µM; with HCT-15 colon it was over 100 µM; in the experiment on TK-10 renal, over 91.5 µM; in the experiment on UACC-257 melanoma it was over 100 µM; in the experiment with PC-3 prostate, over 100 µM; in the experiment with SF-539 CNS, 0.156 µM. Also, the TGI in the experiment on OVCAR-3 ovarian was 0.114 µM; with ACHN renal, over 73.1 µM; with OVCAR-8 ovarian it was over 100 µM; in the experiment with NCI-H460 lung, 18.3 µM.

As for `COc1ccc2ncnc(Nc3ccc(OCc4ccccc4)cc3)c2c1`, the GI50 was 3.41 µM with SK-OV-3 ovarian; 5.61 µM with HCT-15 colon; 3.68 µM in the experiment with TK-10 renal; 7.47 µM in the experiment with UACC-257 melanoma; 8.54 µM in the experiment on PC-3 prostate; 8.96 µM with SF-539 CNS. Also, the GI50 in the experiment on OVCAR-3 ovarian was 7.08 µM; in the experiment with ACHN renal, 5.88 µM; in the experiment on OVCAR-8 ovarian, 8.39 µM; in the experiment on NCI-H460 lung, 7.58 µM. In addition, the TGI is over 23.6 µM in the experiment with SK-OV-3 ovarian; over 25 µM in the experiment with HCT-15 colon; 18.4 µM in the experiment with TK-10 renal; over 25 µM in the experiment with UACC-257 melanoma; over 25 µM in the experiment on PC-3 prostate; over 25 µM in the experiment with SF-539 CNS. Besides, the concentration for total growth inhibition (TGI) in the experiment on OVCAR-3 ovarian was over 23.1 µM; in the experiment on ACHN renal, over 25 µM; with OVCAR-8 ovarian, over 25 µM; in the experiment with NCI-H460 lung, over 25 µM.

Consider `CC(=C(c1ccc(OCCN2CCCCC2)cc1)c1ccc(OCCN2CCCCC2)cc1)c1ccc(Cl)cc1`, for which the GI50 in the experiment on SK-OV-3 ovarian was 0.428 µM; in the experiment with HCT-15 colon, 0.34 µM; in the experiment with TK-10 renal, 0.384 µM; with UACC-257 melanoma, 0.454 µM; with PC-3 prostate, 0.412 µM; in the experiment on SF-539 CNS, 0.393 µM. The 50% growth inhibitory concentration (GI50) is 0.415 µM in the experiment on OVCAR-3 ovarian, 0.434 µM with ACHN renal, 0.484 µM in the experiment with OVCAR-8 ovarian and 0.452 µM in the experiment on NCI-H460 lung. The total growth inhibition concentration (TGI) in the experiment on SK-OV-3 ovarian worked out at 0.806 µM; in the experiment on HCT-15 colon, 0.685 µM; with TK-10 renal, 0.755 µM; in the experiment on UACC-257 melanoma it was 0.884 µM; in the experiment on PC-3 prostate, 0.825 µM; in the experiment with SF-539 CNS it was 0.738 µM. In addition, the TGI in the experiment on OVCAR-3 ovarian was 0.783 µM; in the experiment with ACHN renal, 0.779 µM; in the experiment on OVCAR-8 ovarian it was 1.04 µM; with NCI-H460 lung, 0.844 µM.

`C[C@@H]1CC[C@H]2C(C)(C)[C@H]3C[C@@]12CC[C@@]3(C)O`: the concentration for total growth inhibition (TGI) in the experiment with SK-OV-3 ovarian, in the experiment with HCT-15 colon, with TK-10 renal, in the experiment with UACC-257 melanoma, in the experiment on PC-3 prostate and in the experiment on SF-539 CNS was over 100 µM throughout. Also, the TGI in the experiment with OVCAR-3 ovarian was over 100 µM; with ACHN renal it was over 100 µM; in the experiment on OVCAR-8 ovarian, over 100 µM; in the experiment on NCI-H460 lung, 34.9 µM.

`CCCCCCCCCCSC(=N)N` (tested in a mixture with another compound): the GI50 was 11.8 µM in the experiment with SK-OV-3 ovarian; 2.12 µM in the experiment with HCT-15 colon; 1.95 µM in the experiment with TK-10 renal; 2.46 µM in the experiment on UACC-257 melanoma; 5.01 µM in the experiment with PC-3 prostate; 10.9 µM in the experiment on SF-539 CNS. In addition, the GI50 in the experiment on OVCAR-3 ovarian is 2.36 µM; with ACHN renal, 2.86 µM; in the experiment on OVCAR-8 ovarian, 3.05 µM; with NCI-H460 lung, 2.64 µM. The TGI came to 24.8 µM in the experiment on SK-OV-3 ovarian; 5.06 µM in the experiment on HCT-15 colon; 4.19 µM in the experiment on TK-10 renal; 5.93 µM in the experiment with UACC-257 melanoma; 20.1 µM in the experiment with PC-3 prostate; 23.8 µM in the experiment with SF-539 CNS. Besides, the concentration for total growth inhibition (TGI) is 6.28 µM in the experiment on OVCAR-3 ovarian, 10.1 µM in the experiment on ACHN renal, 9.64 µM in the experiment with OVCAR-8 ovarian and 6.28 µM in the experiment on NCI-H460 lung.
